Laboratory results as given in the NIST ThermoML archive (doi:10.1007/s10765-014-1718-x).
Numbers after ± are expanded uncertainties.

Settings: for thermal diffusivity: Optical interferometry; for speed of sound: Light diffraction method

CCCCC [pentane]
Settings	speed of sound [m/s]	thermal diffusivity [m2/s]
306.16 K, Liquid	–	7.18e-08 ± 3.7e-09
308.14 K, Liquid	963.73 ± 5	–
318.45 K, Liquid	915.77 ± 4.7	–
323.16 K, Liquid	–	6.84e-08 ± 3.6e-09
328.23 K, Liquid	866.06 ± 4.5	–
338.02 K, Liquid	815.68 ± 4.2	–
338.39 K, Liquid	–	6.42e-08 ± 3.3e-09
348.32 K, Liquid	765.39 ± 4	–
348.68 K, Gas	189.16 ± 1.2	–
353.16 K, Liquid	–	6.19e-08 ± 3.2e-09
358.13 K, Liquid	–	6.07e-08 ± 3.2e-09
358.22 K, Gas	187.01 ± 1.2	–
359.03 K, Liquid	715.2 ± 3.7	–
362.37 K, Liquid	–	5.91e-08 ± 3.1e-09
367.9 K, Gas	185.11 ± 1.2	–
368.18 K, Liquid	–	5.79e-08 ± 3e-09
368.31 K, Liquid	667.88 ± 3.5	–
373.47 K, Liquid	–	5.74e-08 ± 3e-09
377.79 K, Gas	183.06 ± 1.1	–
378.2 K, Liquid	–	5.69e-08 ± 3e-09
379.04 K, Liquid	618.28 ± 3.2	–
383.42 K, Liquid	–	5.53e-08 ± 2.9e-09
388.15 K, Liquid	–	5.45e-08 ± 2.8e-09
388.18 K, Gas	178.8 ± 1.1	–
388.52 K, Liquid	571.45 ± 3	–
393.32 K, Liquid	–	5.4e-08 ± 2.8e-09
396.29 K, Liquid	–	5.35e-08 ± 2.8e-09
398.16 K, Liquid	529.46 ± 2.8	–
398.34 K, Gas	174.99 ± 1.1	–
399.16 K, Liquid	–	5.24e-08 ± 2.7e-09
403.33 K, Liquid	–	5.16e-08 ± 2.7e-09
406.96 K, Liquid	483.6 ± 2.6	–
408.14 K, Gas	169.99 ± 1.1	–
408.63 K, Liquid	–	5.12e-08 ± 2.7e-09
413.33 K, Liquid	–	5.01e-08 ± 2.6e-09
417.94 K, Liquid	428.66 ± 2.3	–
418.17 K, Gas	162.61 ± 1.1	–
418.39 K, Liquid	–	4.93e-08 ± 2.6e-09
423.55 K, Gas	–	2.31e-07 ± 6.9e-09
423.61 K, Liquid	–	4.84e-08 ± 2.5e-09
428.12 K, Gas	–	2.14e-07 ± 6.4e-09
428.17 K, Gas	155.41 ± 1	–
428.17 K, Liquid	–	4.69e-08 ± 2.4e-09
428.38 K, Liquid	382.43 ± 2.1	–
433.15 K, Gas	–	1.92e-07 ± 5.8e-09
433.19 K, Gas	150.86 ± 1	–
433.29 K, Liquid	–	4.58e-08 ± 2.4e-09
436.13 K, Gas	–	1.77e-07 ± 5.3e-09
436.19 K, Liquid	–	4.49e-08 ± 2.3e-09
438.21 K, Gas	146.71 ± 1	–
438.23 K, Liquid	327.33 ± 1.8	–
438.87 K, Gas	–	1.64e-07 ± 4.9e-09
439.21 K, Liquid	–	4.43e-08 ± 2.3e-09
442.09 K, Gas	–	1.49e-07 ± 4.5e-09
442.35 K, Liquid	–	4.38e-08 ± 2.3e-09
443.15 K, Gas	140.85 ± 0.98	–
445.16 K, Liquid	–	4.34e-08 ± 2.3e-09
445.19 K, Gas	–	1.35e-07 ± 4.1e-09
447.95 K, Gas	136.18 ± 0.96	–
448.08 K, Liquid	–	4.2e-08 ± 2.2e-09
448.25 K, Gas	–	1.2e-07 ± 3.6e-09
448.62 K, Liquid	267.2 ± 1.5	–
451.23 K, Gas	–	1.08e-07 ± 3.2e-09
451.38 K, Liquid	–	4.08e-08 ± 2.1e-09
453.26 K, Gas	130.15 ± 0.93	–
454.03 K, Gas	–	9.78e-08 ± 2.9e-09
455.2 K, Liquid	–	3.84e-08 ± 2e-09
457.04 K, Gas	–	8.48e-08 ± 2.5e-09
457.87 K, Liquid	209.66 ± 1.3	–
458.28 K, Gas	123.99 ± 0.91	–
458.4 K, Liquid	–	3.55e-08 ± 1.8e-09
460.05 K, Gas	–	7.23e-08 ± 2.2e-09
460.1 K, Liquid	–	3.37e-08 ± 1.8e-09
462.08 K, Gas	–	5.64e-08 ± 1.7e-09
463.16 K, Gas	116.39 ± 0.88	–
463.27 K, Liquid	170.65 ± 1.1	–
463.41 K, Liquid	–	3.04e-08 ± 1.6e-09
464.04 K, Gas	–	4.16e-08 ± 1.2e-09
466.12 K, Gas	–	3.45e-08 ± 1e-09
466.14 K, Liquid	145.22 ± 1	–
466.37 K, Liquid	–	2.59e-08 ± 1.3e-09
469.33 K, Liquid	111.31 ± 0.89	–
